Test results reported in ChEMBL document CHEMBL1201862, “PubChem BioAssay data set” (2004).
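Growth conditions: 96-well plates. Treatment: test compound, 48 hours, 5 concentrations. Analysis: linear interpolation between bracketing concentrations; unreached endpoints set to highest concentration. The concentration for 50% growth inhibition is given as GI50.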 The source made the active and inactive calls. No stated cut-off is given here; in the data, active = GI50 up to about 1.1 µM and inactive = higher.

Experiments:
Assay in all cases: inhibition of tumour cell growth, NCI panel, 48 h
786-0 = test system: 786-0
A549 = test system: A549
ACHN = test system: ACHN
CCRF-CEM = test system: CCRF-CEM
HCT-15 = test system: HCT-15
HOP-62 = test system: HOP-62
Hs-578T = test system: Hs-578T
KM12 = test system: KM12
MDA-MB-231 = test system: MDA-MB-231
MOLT-4 = test system: MOLT-4
Malme-3M = test system: Malme-3M
NCI-H460 = test system: NCI-H460
NCI/ADR-RES = test system: NCI/ADR-RES
OVCAR-4 = test system: OVCAR-4
OVCAR-5 = test system: OVCAR-5
SN12C = test system: SN12C
SNB-19 = test system: SNB-19
SNB-75 = test system: SNB-75
SW-620 = test system: SW-620
U-251 = test system: U-251

SMILES	GI50 (786-0)	GI50 (A549)	GI50 (ACHN)	GI50 (CCRF-CEM)	GI50 (HCT-15)	GI50 (HOP-62)	GI50 (Hs-578T)	GI50 (KM12)	GI50 (MDA-MB-231)	GI50 (MOLT-4)	GI50 (Malme-3M)	GI50 (NCI-H460)	GI50 (NCI/ADR-RES)	GI50 (OVCAR-4)	GI50 (OVCAR-5)	GI50 (SN12C)	GI50 (SNB-19)	GI50 (SNB-75)	GI50 (SW-620)	GI50 (U-251)
COc1cc(C2C3=C(COC3=O)Oc3cc4c(cc32)OCO4)cc(OC)c1O (stereo not given)	< 0.0152 µM (active)	< 0.0141 µM (active)	< 0.0119 µM (active)	0.0134 µM (active)	0.0126 µM	< 0.0135 µM (active)	0.0119 µM (active)	< 0.01 µM (active)	< 0.0246 µM (active)	0.0175 µM (active)	< 0.01 µM (active)	< 0.0139 µM (active)	< 0.01 µM (active)	8.24 µM (inactive)	0.0236 µM (active)	0.0364 µM (active)	< 0.0123 µM (active)	< 0.01 µM (active)	0.0124 µM (active)	< 0.0134 µM (active)
COc1ccc(N2N=NN(C(C)C)/C2=C(/Cl)c2nnnn2-c2ccc(OC)cc2)cc1	2.76 µM (inactive)	17.8 µM (inactive)	16.6 µM (inactive)	1.83 µM (inactive)	15.8 µM	21 µM (inactive)	22.1 µM (inactive)	17.1 µM (inactive)	9.14 µM (inactive)	4.61 µM (inactive)	11.4 µM (inactive)	18.7 µM (inactive)	27.7 µM (inactive)	5.01 µM (inactive)	13.6 µM (inactive)	14.3 µM (inactive)	16 µM (inactive)	13 µM (inactive)	1.82 µM (inactive)	17.5 µM (inactive)
Cc1cn([C@@H]2O[C@H](CO[Si](C)(C)C(C)(C)C)[C@]3(O[C@H]3C(=O)NO)[C@H]2O[Si](C)(C)C(C)(C)C)c(=O)[nH]c1=O	1.54 µM (inactive)	1.82 µM (inactive)	1.7 µM (inactive)	0.634 µM (active)	1.87 µM	1.76 µM (inactive)	1.92 µM (inactive)	1.79 µM (inactive)	2.09 µM (inactive)	1.73 µM (inactive)	2.14 µM (inactive)	1.69 µM (inactive)	5.7 µM (inactive)	1.75 µM (inactive)	1.78 µM (inactive)	1.61 µM (inactive)	1.66 µM (inactive)	1.71 µM (inactive)	1.91 µM (inactive)	1.7 µM (inactive)
N#CC1C(=O)SC2c3ccccc3C(=O)c3ccccc3C12 (stereo not given)	> 10 µM (inactive)	> 10 µM (inactive)	> 10 µM (inactive)	> 10 µM (inactive)	> 10 µM	> 10 µM (inactive)	> 10 µM (inactive)	> 10 µM (inactive)	> 10 µM (inactive)	> 10 µM (inactive)	> 10 µM (inactive)	> 10 µM (inactive)	> 10 µM (inactive)	> 10 µM (inactive)	> 10 µM (inactive)	> 10 µM (inactive)	> 10 µM (inactive)	3.26 µM (inactive)	> 10 µM (inactive)	> 10 µM (inactive)
CC(C)(CO)NC1=C(Cl)C(=O)c2c(O)ccc(O)c2C1=O	1.46 µM (inactive)	1.86 µM (inactive)	1.7 µM (inactive)	0.33 µM (active)	0.557 µM	1.56 µM (inactive)	0.743 µM (active)	1.43 µM (inactive)	1.61 µM (inactive)	0.568 µM (active)	1.87 µM (inactive)	2.42 µM (inactive)	1.88 µM (inactive)	1.57 µM (inactive)	1.65 µM (inactive)	1.56 µM (inactive)	1.77 µM (inactive)	1.31 µM (inactive)	0.327 µM (active)	1.73 µM (inactive)
Cc1[nH]c2ncn3ncnc3c2c1Cc1ccccc1	> 100 µM (inactive)	> 100 µM (inactive)	> 100 µM (inactive)	> 100 µM (inactive)	> 100 µM	> 100 µM (inactive)	> 100 µM (inactive)	> 100 µM (inactive)	> 100 µM (inactive)	> 100 µM (inactive)	> 100 µM (inactive)	> 100 µM (inactive)	> 100 µM (inactive)	> 100 µM (inactive)	> 100 µM (inactive)	> 100 µM (inactive)	> 100 µM (inactive)	> 100 µM (inactive)	> 100 µM (inactive)	> 100 µM (inactive)
CC(C)(C)[Si](C)(C)OCC1OC(n2cnc3c(=O)[nH]c(N)nc32)C(O[Si](C)(C)C(C)(C)C)C1O[Si](C)(C)C(C)(C)C (stereo not given)	1.67 µM (inactive)	2.34 µM (inactive)	2.08 µM (inactive)	1.3 µM (inactive)	> 46.9 µM	2.64 µM (inactive)	2.46 µM (inactive)	1.64 µM (inactive)	3.71 µM (inactive)	1.24 µM (inactive)	1.88 µM (inactive)	1.32 µM (inactive)	> 100 µM (inactive)	1.74 µM (inactive)	2.33 µM (inactive)	2.2 µM (inactive)	2.29 µM (inactive)	3.11 µM (inactive)	2.47 µM (inactive)	1.78 µM (inactive)
CCNC(=S)NNC(=O)c1ccccc1Nc1ccccc1C(=O)NNC(=S)NCC	> 100 µM (inactive)	> 100 µM (inactive)	> 100 µM (inactive)	> 100 µM (inactive)	> 100 µM	> 100 µM (inactive)	> 100 µM (inactive)	> 100 µM (inactive)	> 100 µM (inactive)	> 100 µM (inactive)	> 100 µM (inactive)	> 100 µM (inactive)	> 100 µM (inactive)	> 100 µM (inactive)	> 100 µM (inactive)	> 100 µM (inactive)	> 100 µM (inactive)	> 100 µM (inactive)	> 100 µM (inactive)	> 100 µM (inactive)
CN(CCc1ccccn1)c1ccc2c(c1)Cc1ccccc1-2	25.8 µM (inactive)	13.6 µM (inactive)	22.5 µM (inactive)	10.2 µM (inactive)	3.43 µM	16.1 µM (inactive)	4.54 µM (inactive)	14.4 µM (inactive)	3.09 µM (inactive)	5.42 µM (inactive)	9.68 µM (inactive)	5.75 µM (inactive)	26.9 µM (inactive)	22.5 µM (inactive)	28.4 µM (inactive)	33.8 µM (inactive)	19.3 µM (inactive)	17.9 µM (inactive)	48.4 µM (inactive)	5.35 µM (inactive)
COc1ccc(N2C(=O)C(=O)N(c3ccccc3[N+](=O)[O-])C2=S)cc1	33 µM (inactive)	38.5 µM (inactive)	28.4 µM (inactive)	81.7 µM (inactive)	18.2 µM	50 µM (inactive)	22.7 µM (inactive)	22.3 µM (inactive)	20.4 µM (inactive)	34.8 µM (inactive)	36.8 µM (inactive)	34.3 µM (inactive)	23.5 µM (inactive)	18.9 µM (inactive)	22.4 µM (inactive)	37.4 µM (inactive)	44.6 µM (inactive)	27.1 µM (inactive)	37.9 µM (inactive)	37.8 µM (inactive)
N#CC(C#N)C1CN2CCC1CC2 (stereo not given)	> 100 µM (inactive)	> 100 µM (inactive)	> 100 µM (inactive)	> 100 µM (inactive)	> 100 µM	> 100 µM (inactive)	> 100 µM (inactive)	> 100 µM (inactive)	> 100 µM (inactive)	> 100 µM (inactive)	> 100 µM (inactive)	> 100 µM (inactive)	> 100 µM (inactive)	> 100 µM (inactive)	> 100 µM (inactive)	> 100 µM (inactive)	> 100 µM (inactive)	> 100 µM (inactive)	> 100 µM (inactive)	> 100 µM (inactive)
O=C(O)C[n+]1cn(NC(=O)Cc2ccccc2)cn1	> 10 µM (inactive)	> 10 µM (inactive)	> 10 µM (inactive)	> 10 µM (inactive)	> 10 µM	> 10 µM (inactive)	0.158 µM (active)	> 10 µM (inactive)	> 10 µM (inactive)	> 10 µM (inactive)	> 10 µM (inactive)	> 10 µM (inactive)	> 10 µM (inactive)	> 10 µM (inactive)	> 10 µM (inactive)	> 10 µM (inactive)	> 10 µM (inactive)	> 10 µM (inactive)	> 10 µM (inactive)	> 10 µM (inactive)
CCCCOC(=O)C(O)Cc1ccoc1 (stereo not given)	> 100 µM (inactive)	> 100 µM (inactive)	> 100 µM (inactive)	> 100 µM (inactive)	> 100 µM	> 100 µM (inactive)	> 100 µM (inactive)	> 100 µM (inactive)	> 100 µM (inactive)	> 100 µM (inactive)	> 100 µM (inactive)	> 100 µM (inactive)	> 100 µM (inactive)	> 100 µM (inactive)	> 100 µM (inactive)	> 100 µM (inactive)	> 100 µM (inactive)	> 100 µM (inactive)	> 100 µM (inactive)	> 100 µM (inactive)
C=C1C(=O)C23CC1C[C@H](OC(C)=O)C2C1(C)C(OC(C)=O)C[C@H](O)C(C)(C)[C@H]1C(O)[C@@H]3OC(C)=O (stereo not given in full)	7.87 µM (inactive)	22.9 µM (inactive)	11.9 µM (inactive)	2.24 µM (inactive)	10.4 µM	18.9 µM (inactive)	15.8 µM (inactive)	33 µM (inactive)	7.19 µM (inactive)	2.73 µM (inactive)	7.01 µM (inactive)	26.7 µM (inactive)	> 100 µM (inactive)	10.8 µM (inactive)	14.6 µM (inactive)	8.07 µM (inactive)	21.5 µM (inactive)	18.8 µM (inactive)	2.48 µM (inactive)	15.3 µM (inactive)
